Literature values in article PMC8711005, “Phase 1 Dose-Escalation Study of Plasma Kallikrein Inhibitor THR-149 for the Treatment of Diabetic Macular Edema” (Translational Vision Science & Technology, 2021).

Test system: subjects with center-involved DME
Settings: single IVT injection, 14 subjects with center-involved DME, Month 3
Description: A recent phase I study of another PKal inhibitor, KVD001, enrolled 14 subjects with center-involved DME who had received prior anti-VEGF treatment.[30] Baseline demographics were similar to those in the current study, with some notable differences in baseline ocular characteristics, including higher baseline BCVA and lower CST relative to those enrolled in our study. The maximum BCVA increase following a single IVT injection of KVD001 was 4.1 ETDRS letters at Month 3, with a corresponding mean reduction of 23 µm in CST. Rescue treatment was allowed; however, the frequency and imputation method ...

What does the source list for `CCOc1ccc(C[C@@H](NC(=O)c2ccccc2)C(=O)N[C@@H](Cc2ccccc2)C(=O)NCc2ccc(CN)cc2)cc1` [KVD001]?
Maximum BCVA increase: 4.1 ETDRS letters; Mean reduction in CST: 23 µm
